Experimental findings from US20040122109A1, “Preparation for hair and/or scalp” (priority 2001, published 2004) are described below.

One assay has as its system hairless rats. Put plainly: Prevention of hair removal: hair removal score of hairless rats. The following applies: for Hair removal score of hairless rat, before application: 4-week old male hairless rats in pilose period, baseline, score 1-5 (1 = no hair removal, 5 = hair removal in 60% or more); for Hair removal score of hairless rat, before application / Hair removal score of hairless rat, 71 days after: n = 5, Average ± S.D.; for Hair removal score of hairless rat, 71 days after: 10% in PEG1000 applied to back once a day for 12 days, 71st day after application was terminated, score 1-5 (lower = less hair removal); for Activity of preventing hair removal (in words): hairless rats, 10% in PEG1000, once a day for 12 days. In kind it is in vivo, rat. The source says: 4-week old male hairless rats in the pilose period were used for evaluating the activity of preventing hair removal. The same samples as those used in Example 1 were used. In each group of five hairless rats, each of the samples was applied to the back of each rat once a day for 12 days, and then a hair removal state was observed after the application was stopped. The hair removal state was observed based on the following scores.
1; No hair removal was observed.
2; Hair became short in 30% or less of the applied region.

The next assay relates to C3H mice. As to the kind of experiment: Hair restoration test: hair growth score on the shaved back of C3H mice. Type of assay: in vivo, mouse. The following applies: for Hair growth score of C3H mouse, before application: 7-week old male C3H mice in telogen, shaved back, baseline, score 1-5 (1 = skin pink, 5 = hair growth in 60% or more); for Hair growth score of C3H mouse, before application / Hair growth score of C3H mouse, after application: n = 7, Average ± S.D.; for Hair growth score of C3H mouse, after application: 10% in PEG1000 applied to shaved portion once a day, total of 14 times, score 1-5 (higher = more hair growth); for Hair restoration activity (in words): C3H mice, 10% in PEG1000, 14 applications. From the text:
The back of each of 7-week old male C3H mice in the telogen period of the hair cycle was carefully shaved, and then groups of seven mice each without wounds at the backs were subjected to a test. In a control group, only polyethylene glycol 1000 (PEG1000) used as a base was applied to each mouse, while in an evaluation group, 10% oxidized coenzyme Q10 or 10% reduced coenzyme Q10 (reduced coenzyme Q10:oxidized coenzyme Q10=95:5) was applied to the shaved portion once a day (total of 14 times). After the application, the back of each mouse was evaluated based on the scores below to evaluate the hair restoration activity of a compound.
2; Less than 30% of the shaved portion was discolored to gray.

`COC1=C(OC)C(=O)C(C/C=C(\C)CC/C=C(\C)CC/C=C(\C)CC/C=C(\C)CC/C=C(\C)CC/C=C(\C)CC/C=C(\C)CC/C=C(\C)CC/C=C(\C)CCC=C(C)C)=C(C)C1=O` [Oxidized coenzyme Q10, oxidized coenzyme Q10]: in the assay on hairless rats, the “Hair removal score of hairless rat, before application” value is listed as 1.0 ± 0.00; the “Hair removal score of hairless rat, 71 days after” value was determined as 3.6 ± 0.24; the “Activity of preventing hair removal (in words)” value was “has the activity of preventing hair removal”. In the assay with C3H mice, the “Hair growth score of C3H mouse, before application” value was 1.0 ± 0.00; the “Hair growth score of C3H mouse, after application” value is on record as 2.7 ± 0.35; the “Hair restoration activity (in words)” value is “a hair restoration activity was observed”.
For the compound `COc1c(O)c(C)c(C/C=C(\C)CC/C=C(\C)CC/C=C(\C)CC/C=C(\C)CC/C=C(\C)CC/C=C(\C)CC/C=C(\C)CC/C=C(\C)CC/C=C(\C)CCC=C(C)C)c(O)c1OC` [Reduced coenzyme Q10, reduced coenzyme Q10], in the assay with hairless rats, the “Hair removal score of hairless rat, before application” value amounted to 1.0 ± 0.00; the “Hair removal score of hairless rat, 71 days after” value was found to be 3.0 ± 0.71; the “Activity of preventing hair removal (in words)” value is recorded as “has the activity of preventing hair removal”. In addition, in the assay on C3H mice, the “Hair growth score of C3H mouse, before application” value is reported as 1.0 ± 0.00; the “Hair growth score of C3H mouse, after application” value was determined as 3.2 ± 0.64; the “Hair restoration activity (in words)” value was “a higher hair restoration activity was observed”.
